Tests used:
[1] = system: osteoclast differentiation; test: Inhibitory effects on osteoclast differentiation (co-culture of bone marrow cells with osteoblast, TRAP staining); format: cell-based, mice; settings: co-culture of bone marrow cells and osteoblast, 7 days, TRAP-positive osteoclasts versus controls; for inhibition at 1 µM: Mus musculus, Osteoclast, 168 h, 1 m, read-out: % inhibitory activity on osteoclastogenesis
In short: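 Bone marrow cells from 6–8-week male ddY mice co-cultured with neonatal ICR mouse calvarial osteoblasts in α-MEM/FBS with dexamethasone (10^−7M) and vitamin D3 (10^−8M) for 7 days, compound and medium renewed every 2–3 days. TRAP-positive cells with ≥3 nuclei counted; inhibition given as percent of control.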

cells = test: Cytotoxicity test (MTT); format: cell-based; settings: 10^−6M, 72 hrs, compared with the control group
Description: Cytotoxic effect of benzamidine derivatives was evaluated by the experiment described below.
The test substance was diluted in appropriate solvent at 10^−2M concentration. […] Cells to be used in cytotoxitic test were plated on a 96-well microplate in a dose of 1×10^4 cell/100 μL per well and cultured for 72 hrs. 25 μL of MTT [3-(4,5-dimethyl-2-thiazolyl)-2,5-diphenyl-2H-tetrazolium bromide] dissolved in PBS at 2 mg/mL were added before 4 hrs of the end of culture. After reaction, the plates were centrifuged, medium was decanted and 100 μL of DMSO was added to dissolve formazan. Lastly, the absorbance of developed plates was measured at 540 nm.

SMILES: CCS(=O)(=O)Nc1nc(-c2ccc(OCCCCCOc3ccc(C(=N)NO)cc3)cc2)c(C)s1 [Example 93, N-hydroxy-4-(5-[4-(2-ethanesulfonylamino-5-methyl-1,3-thiazol-4-yl)phenoxy]pentoxy)-benzamidine]
- inhibition at 1 µM [1]: 63.7%
- Survival rates of the cells (cells; MC3T3-E1 cells): 66.8%
- Survival rates of the cells (cells; ST2 cells): 55.0%

SMILES: CCc1sc(NC)nc1-c1ccc(OCCCCCOc2ccc(C(=N)NO)cc2)cc1 [Example 96, N-hydroxy-4-(5-[4-(5-ethyl-2-methylamino-1,3-thiazol-4-yl)phenoxy]pentoxy)-benzamidine]
- inhibition at 1 µM [1]: 64.3%
- Survival rates of the cells (cells; MC3T3-E1 cells): 65.1%
- Survival rates of the cells (cells; ST2 cells): 27.8%

SMILES: CCCNc1nc(-c2ccc(OCCCCCOc3ccc(C(=N)NO)cc3)cc2)c(CC)s1 [Example 98, N-hydroxy-4-(5-[4-(5-ethyl-2-propylamino-1,3-thiazol-4-yl)phenoxy]pentoxy)-benzamidine]
- inhibition at 1 µM [1]: 94.7%
- Survival rates of the cells (cells; MC3T3-E1 cells): 77.1%
- Survival rates of the cells (cells; ST2 cells): 26.9%

SMILES: CCc1sc(NC(=O)c2ccncc2)nc1-c1ccc(OCCCCCOc2ccc(C(=N)NO)cc2)cc1 [Example 100, N-hydroxy-4-(5-[4-(5-ethyl-2-(4-pyridylcarbonyl)amino-1,3-thiazol-4-yl)phenoxy]pentoxy)-benzamidine]
- inhibition at 1 µM [1]: 63%
- Survival rates of the cells (cells; MC3T3-E1 cells): 62.8%
- Survival rates of the cells (cells; ST2 cells): 39.1%

SMILES: CNc1nc(-c2ccc(OCCCCCOc3ccc(C(=N)NO)cc3)cc2)c(Cc2ccccc2)s1 [Example 107, N-hydroxy-4-(5-[4-(5-benzyl-2-methylamino-1,3-thiazol-4-yl)phenoxy]pentoxy)-benzamidine]
- inhibition at 1 µM [1]: 53.2%
- Survival rates of the cells (cells; MC3T3-E1 cells): 65.2%
- Survival rates of the cells (cells; ST2 cells): 43.9%

SMILES: CNc1nc(-c2ccc(OCCCCCOc3ccc(C(=N)NO)cc3)cc2)c(CC2CCCC2)s1 [Example 109, N-hydroxy-4-(5-[4-(5-cyclopentylmethyl-2-methylamino-1,3-thiazol-4-yl)phenoxy]pentoxy)-benzamidine]
- inhibition at 1 µM [1]: 80.5%
- Survival rates of the cells (cells; MC3T3-E1 cells): 65.7%
- Survival rates of the cells (cells; ST2 cells): 39.0%

SMILES: N=C(NO)c1ccc(OCCCCCOc2ccc(-c3nc(NC(=O)c4ccncc4)sc3CC3CCCC3)cc2)cc1 [Example 112, N-hydroxy-4-(5-[4-(5-cyclopentylmethyl-2-(4-pyridylcarbonyl)amino-1,3-thiazol-4-yl)phenoxy]pentoxy)-benzamidine]
- inhibition at 1 µM [1]: 76.8%
- Survival rates of the cells (cells; MC3T3-E1 cells): 86.7%
- Survival rates of the cells (cells; ST2 cells): 63.6%

SMILES: CCS(=O)(=O)N(C)c1nc(-c2ccc(OCCCCCOc3ccc(C(=N)NO)cc3)cc2)cs1 [Example 118, N-hydroxy-4-(5-[4-(2-(ethanesulfonyl-methyl-amino)-1,3-thiazol-4-yl)phenoxy]pentoxy)-benzamidine]
- inhibition at 1 µM [1]: 82.9%
- Survival rates of the cells (cells; MC3T3-E1 cells): 75.3%
- Survival rates of the cells (cells; ST2 cells): 53.2%

SMILES: CCN(CCO)c1nc(-c2ccc(OCCCCCOc3ccc(C(=N)NO)cc3)cc2)c(C)s1 [Example 121, N-hydroxy-4-(5-[4-(2-(ethyl-(2-hydroxyethyl)-amino)-5-methyl-1,3-thiazol-4-yl)phenoxy]pentoxy)-benzamidine]
- inhibition at 1 µM [1]: 69.4%
- Survival rates of the cells (cells; MC3T3-E1 cells): 100.0%
- Survival rates of the cells (cells; ST2 cells): 41.4%

SMILES: Cc1sc(N(C)Cc2ccccc2)nc1-c1ccc(OCCCCCOc2ccc(C(=N)NO)cc2)cc1 [Example 125, N-hydroxy-4-(5-[4-(2-(benzyl-methyl-amino)-5-methyl-1,3-thiazol-4-yl)phenoxy]pentoxy)-benzamidine]
- inhibition at 1 µM [1]: 73%
- Survival rates of the cells (cells; MC3T3-E1 cells): 57.6%
- Survival rates of the cells (cells; ST2 cells): 47.9%

SMILES: CCc1sc(N(CC)CCO)nc1-c1ccc(OCCCCCOc2ccc(C(=N)NO)cc2)cc1 [Example 130, N-hydroxy-4-(5-[4-(5-ethyl-2-(ethyl-(2-hydroxyethyl)-amino)-1,3-thiazol-4-yl)phenoxy]pentoxy)-benzamidine]
- inhibition at 1 µM [1]: 55.8%
- Survival rates of the cells (cells; MC3T3-E1 cells): 100.0%
- Survival rates of the cells (cells; ST2 cells): 37.2%

SMILES: CCc1sc(N(C)Cc2ccccc2)nc1-c1ccc(OCCCCCOc2ccc(C(=N)NO)cc2)cc1 [Example 133, N-hydroxy-4-(5-[4-(2-(benzyl-methyl-amino)-5-ethyl-1,3-thiazol-4-yl)phenoxy]pentoxy)-benzamidine]
- inhibition at 1 µM [1]: 76.6%
- Survival rates of the cells (cells; MC3T3-E1 cells): 62.6%
- Survival rates of the cells (cells; ST2 cells): 46.4%

SMILES: CCc1sc(N(C)Cc2cccnc2)nc1-c1ccc(OCCCCCOc2ccc(C(=N)NO)cc2)cc1 [Example 134, N-hydroxy-4-(5-[4-(5-ethyl-2-(methyl-(pyridin-3-yl-methyl)amino)-1,3-thiazol-4-yl)phenoxy]pentoxy)-benzamidine]
- inhibition at 1 µM [1]: 63.7%
- Survival rates of the cells (cells; MC3T3-E1 cells): 43.9%
- Survival rates of the cells (cells; ST2 cells): 37.4%

SMILES: CCc1sc(N(CC)Cc2cccnc2)nc1-c1ccc(OCCCCCOc2ccc(C(=N)NO)cc2)cc1 [Example 136, N-hydroxy-4-(5-[4-(5-ethyl-2-(ethyl-(pyridin-3-yl-methyl)amino)-1,3-thiazol-4-yl)phenoxy]pentoxy)-benzamidine]
- inhibition at 1 µM [1]: 49.2%
- Survival rates of the cells (cells; MC3T3-E1 cells): 48.5%
- Survival rates of the cells (cells; ST2 cells): 29.9%

SMILES: CCc1sc(N(CCO)CCO)nc1-c1ccc(OCCCCCOc2ccc(C(=N)NO)cc2)cc1 [Example 139, N-hydroxy-4-(5-[4-(2-(bis-(2-hydroxyethyl)amino)-5-ethyl-1,3-thiazol-4-yl)phenoxy]pentoxy)-benzamidine]
- inhibition at 1 µM [1]: 84.1%
- Survival rates of the cells (cells; MC3T3-E1 cells): 77.4%
- Survival rates of the cells (cells; ST2 cells): 48.1%

SMILES: CC(C)c1sc(N(C)Cc2cccnc2)nc1-c1ccc(OCCCCCOc2ccc(C(=N)NO)cc2)cc1 [Example 141, N-hydroxy-4-(5-[4-(5-isopropyl-2-(methyl-(pyridin-3-yl-methyl)amino)-1,3-thiazol-4-yl)phenoxy]pentoxy)-benzamidine]
- inhibition at 1 µM [1]: 74.8%
- Survival rates of the cells (cells; MC3T3-E1 cells): 52.8%
- Survival rates of the cells (cells; ST2 cells): 27.9%

SMILES: CCCCc1sc(N(CCC)CCC)nc1-c1ccc(OCCCCCOc2ccc(C(=N)NO)cc2)cc1 [Example 146, N-hydroxy-4-(5-[4-(5-butyl-2-dipropylamino-1,3-thiazol-4-yl)phenoxy]pentoxy)-benzamidine]
- inhibition at 1 µM [1]: 94.4%
- Survival rates of the cells (cells; MC3T3-E1 cells): 88.4%
- Survival rates of the cells (cells; ST2 cells): 38.2%

SMILES: CN(Cc1cccnc1)c1nc(-c2ccc(OCCCCCOc3ccc(C(=N)NO)cc3)cc2)c(CC2CCCC2)s1 [Example 147, N-hydroxy-4-(5-[4-(5-cyclopentylmethyl-2-(methyl-(pyridin-3-yl-methyl)amino)-1,3-thiazol-4-yl)phenoxy]pentoxy)-benzamidine]
- inhibition at 1 µM [1]: 81.1%
- Survival rates of the cells (cells; MC3T3-E1 cells): 100.0%
- Survival rates of the cells (cells; ST2 cells): 42.4%

SMILES: CCc1sc(N2CCCCC2)nc1-c1ccc(OCCCCCOc2ccc(C(=N)NO)cc2)cc1 [Example 166, N-hydroxy-4-(5-[4-(5-ethyl-2-piperdino-1,3-thiazol-4-yl)phenoxy]pentoxy)-benzamidine]
- % inhibitory activity on osteoclastogenesis [1]: 81.2%
- Survival rates of the cells (cells; MC3T3-E1 cells): 71.2%
- Survival rates of the cells (cells; ST2 cells): 52.4%

SMILES: Cc1nc(-c2ccc(OCCCN3CCN(CCCOc4ccc(C(=N)NO)cc4)CC3)cc2)c(C(C)C)s1 [Example 181, N-hydroxy-4-(3-[4-(3-(4-(5-isopropyl-2-methyl-1,3-thiazol-4-yl)-phenoxy)-propyl)-piperazin-1-yl]-propoxy)-benzamidine]
- inhibition at 1 µM [1]: 54.1%
- Survival rates of the cells (cells; MC3T3-E1 cells): 99.5%
- Survival rates of the cells (cells; ST2 cells): 36.7%
